These results are taken from article PMC6094399, “New tools for carbohydrate sulfation analysis: heparan sulfate 2-O-sulfotransferase (HS2ST) is a target for small-molecule protein kinase inhibitors” (Biochemical Journal, 2018).

Data set [1] addresses T1, HS2ST (Gallus gallus, UniProt Q76KB1).
T1 construct: made in house; host or cells: Escherichia coli Rosetta-gami (DE3), modified pMAL-c2x plasmid
T1 sequence (Q76KB1 69-356): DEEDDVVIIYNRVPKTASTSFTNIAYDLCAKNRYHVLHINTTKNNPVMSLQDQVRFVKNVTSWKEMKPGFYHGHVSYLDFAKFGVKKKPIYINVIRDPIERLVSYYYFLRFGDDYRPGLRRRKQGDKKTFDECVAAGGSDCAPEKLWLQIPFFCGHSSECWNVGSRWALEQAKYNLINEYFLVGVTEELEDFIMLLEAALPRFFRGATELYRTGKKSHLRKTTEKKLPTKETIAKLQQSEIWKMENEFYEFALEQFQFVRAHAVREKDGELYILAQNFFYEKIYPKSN
Description: DSF thermal shift/stability assay of MBP-HS2ST. The data set is classed as binding, Chicken. The conditions noted are these: 5 μM MBP-HS2ST; for thermal stabilisation of HS2ST (DSF): result in words.

Data set [2] relates to MBP. Kind of data set: DSF thermal shift control with MBP. In kind it is binding. The conditions noted are these: 0.5 mM PAPS, 10 μM heparin or 5 mM maltose; result in words.
Data set [3] has as its system catalytic subunit of cAMP-dependent protein kinase (PKAc). Description: DSF thermal shift of recombinant PKAc. The note with it: 5 μM PKAc. The data set is classed as binding.
Data set [4] deals with GlcNAc-6-sulfotransferase NodH. The conditions noted are these: read-out: Km for PAPS; PAPS-dependent GlcNAc-6-sulfotransferase NodH; cited from earlier work.
Data set [5] deals with HS2ST. The note with it: read-out: Km for PAPS; HS2ST using desulfated heparin as a substrate; cited from earlier work.
Data set [6] deals with tyrosyl sulfotransferase. The note with it: read-out: Km for PAPS; tissue-purified tyrosyl sulfotransferase; cited from earlier work.
The subject of data set [7] is hormone iodotyrosine sulfotransferases. The conditions noted are these: read-out: Km for PAPS; human hormone iodotyrosine sulfotransferases; cited from earlier work.
Data set [8] addresses T1, HS2ST. Kind of data set: Microfluidic mobility shift sulfation assay with fluorescent hexasaccharide substrate. The data set is classed as biochemical, Chicken. The note with it: for HS2ST inhibition (dose-response): 1 μM PAPS, 15 min at 20°C (Figure 4C); for HS2ST inhibition: concentrations as high as 400 μM (Supplementary Figure S9B); for mode of HS2ST inhibition: increasing concentration of PAPS, 10 μM PAP, 0.5 mM CoA or 20 μM rottlerin. From the text: (§1) N-sulfated, fluorescein-tagged hexasaccharide glycan substrate (GlcNS–GlcA–GlcNS–IdoA–GlcNS–GlcA-fluorescein, where S = sulfation) containing either L-IdoA or D-GlcA residues at the third residue from the reducing end (to which a linker and the fluorophore were conjugated) was both purchased from GLYCAN therapeutics (www.glycantherapeutics.com). […] Chemically modified heparins were generated through a published procedure, whereas oligosaccharides from Iduron were generated enzymatically. Non-radioactive microfluidic mobility shift carbohydrate sulfation assays were optimised in solution with a 12-sipper chip coated with CR8 reagent and a PerkinElmer EZ Reader II system using EDTA-based separation buffer and real-time kinetic evaluation of substrate sulfation. Pressure and voltage settings were adjusted manually to afford optimal separation of the sulfated product and non-sulfated hexasaccharide substrate, with a sample (sip) volume of 20 nl, and total assay times appropriate for the experiment. […] The degree of oligosaccharide sulfation was directly calculated using the EZ Reader software by measuring the sulfo oligosaccharide : oligosaccharide ratio at each time-point. The activity of HS2ST enzymes in the presence of biochemicals and small-molecule inhibitors was quantified in ‘kinetic mode’ by monitoring the amount of sulfated glycan generated over the assay time, relative to control assay with no additional inhibitor molecule (DMSO control). […] Km and IC50 values were determined by nonlinear regression analysis with GraphPad Prism software.
The PKIS chemical library (Supplementary Figure S6, designated as SB, GSK or GW compound sets) comprises 367 largely ATP-competitive kinase inhibitors, covering 31 chemotypes originally designed to inhibit 24 distinct protein kinase targets. Compounds were stored frozen as a 10 mM stock in DMSO. The library is characterised as highly drug-like (∼70% with molecular mass <500 Da and clogP values <5). […] For inhibition assays, competition assays or individual IC50 value determination, a compound range was prepared by serial dilution in DMSO and added directly into the assay to the appropriate final concentration. All control experiments contained 4% (v/v) DMSO, which had essentially no effect on HS2ST activity. Individual chemicals and glycan derivatives were prepared and evaluated using NMR, HPLC, DSF or microfluidics-based assay protocols, as described above.

Substrate in data set [9]: Nc1ncnc2c1ncn2C1OC(COP(=O)(O)OS(=O)(=O)O)C(OP(=O)(O)O)C1O
The description is as above. The data set is classed as biochemical, Chicken. The conditions noted are these: other: 20 nM HS2ST, fluorescein-labelled IdoA hexasaccharide substrate; pH 7.4.
Text: as §1, with “sulfation.” for “sulfation. Pressure and voltage settings were adjusted manually to afford optimal separation of the sulfated product and non-sulfated hexasaccharide substrate, with a sample (sip) volume of 20 nl, and total assay times appropriate for the experiment.”, “software. […]” for “software.”

The mark [10] stands for this setting: 20 nM HS2ST, 10 μM PAPS (Figure 3D), read-out: IC50.
Where [11] appears, read: positive controls of the PKIS enzyme re-screen (Figure 4B, Supplementary Figures 7 and 8), read-out: IC50.
[12] abbreviates: nucleotides, 20 nM HS2ST, 10 μM PAPS, absence of MgCl2, 15 min, read-out: IC50.

In general, Km refers to the concentration of substrate that gives half-maximal velocity. One may read the IC50 as the concentration that inhibits the measured activity by half. As usually defined, the ΔTm is the shift of the melting midpoint relative to a reference.

Values joined by “and” are separate entries in the source; they are usually repeats but may differ in a detail not shown here. Identical values can stand only once. “Also recorded” adds a separate entry of the source. Like-named read-outs stand apart in the source and are kept apart here.

Turning to `CN[C@@H]1C[C@H]2O[C@@](C)([C@@H]1OC)n1c3ccccc3c3c4c(c5c6ccccc6n2c5c31)C(=O)NC4` [staurosporine], in data set [1], the “thermal stabilisation of HS2ST (DSF)” value was “neither the pan-kinase inhibitor staurosporine nor several FDA-approved tyrosine kinase inhibitors caused thermal stabilisation”.

Take `CC(=O)SCCNC(=O)CCNC(=O)[C@H](O)C(C)(C)COP(=O)(O)OP(=O)(O)OC[C@H]1O[C@@H](n2cnc3c(N)ncnc32)[C@H](O)[C@@H]1OP(=O)(O)O` [acetyl CoA]: the “thermal stabilisation of HS2ST (DSF)” value in [1] was “clearly induced thermal stabilisation”. On to `OC[C@H]1O[C@H](O[C@H]2[C@H](O)[C@@H](O)C(O)O[C@@H]2CO)[C@H](O)[C@@H](O)[C@@H]1O` (mixture of isomers) [maltose], for which the “thermal stabilisation of MBP (DSF)” value in data set [2] is on record as “characteristic stabilisation profile”.

In the case of `Nc1ncnc2c1ncn2C1OC(COP(=O)(O)OS(=O)(=O)O)C(OP(=O)(O)O)C1O` (stereo not drawn) [PAPS, adenosine 3′-phosphate 5′-phosphosulfate], the “thermal stabilisation of PKAc (DSF)” value in data set [3] (0.5 mM PAPS, result in words) was “did not stabilise”. In addition, the Km is ~4.3 µM in [4], 18.5 µM in data set [5], 10 µM in [6] and 1.5 µM in data set [7]. Further, the “thermal stabilisation of HS2ST (DSF)” value in data set [1] is on record as “positively shifted (stabilised); also recorded: dose-dependent stabilisation”. Further, the “thermal stabilisation of MBP (DSF)” value in data set [2] is listed as “neither PAPS nor heparin induced stabilisation”. Regarding `COC(=O)c1ccc2c(c1)C(=Cc1cc(Br)c(O)c(Br)c1)C(=O)N2` [GW405841X], in data set [8] (20 nM HS2ST, result in words), the “HS2ST inhibition (dose-response)” value is “did not inhibit HS2ST at any concentration tested”.

Regarding `Cc1ccc(C(=O)Nc2ccc(S(=O)(=O)O)c3cc(S(=O)(=O)O)cc(S(=O)(=O)O)c23)cc1NC(=O)c1cccc(NC(=O)Nc2cccc(C(=O)Nc3cc(C(=O)Nc4ccc(S(=O)(=O)O)c5cc(S(=O)(=O)O)cc(S(=O)(=O)O)c45)ccc3C)c2)c1` [suramin], the IC50 was 0.04 ± 0.001 µM in [8] (setting [10]) and ~0.02 µM in data set [8] (setting [11]). As for `CCCS(=O)(=O)Nc1ccc(F)c(C(=O)c2c[nH]c3ncc(-c4ccc(Cl)cc4)cc23)c1F` [vemurafenib], the HS2ST inhibition result in data set [8] (result in words) is listed as “unable to inhibit HS2ST”. For `Nc1ncnc2c1ncn2[C@@H]1O[C@H](COP(=O)(O)O)[C@@H](O)[C@H]1O` [AMP, adenosine 5′-monophosphate], the “thermal stabilisation of HS2ST (DSF)” value in data set [1] is “not”.

Turning to `Nc1ncnc2c1ncn2[C@@H]1O[C@H](COP(=O)(O)OP(=O)(O)OP(=O)(O)O)[C@@H](O)[C@H]1O` [ATP, adenosine 5′-triphosphate], the IC50 in data set [8] (setting [12]) turned out to be 466 µM. On to Mg-ATP, for which the thermal shift (ΔTm) in [3] (0.5 mM ATP and 10 mM MgCl2) is > 4 °C. Consider `Nc1ncnc2c1ncn2C1OC(COP(=O)(O)O)C(OP(=O)(O)O)C1O` (stereo not drawn) [PAP, adenosine 3′–5′-diphosphate], for which the “mode of HS2ST inhibition” value in data set [8] is on record as “PAPS-competitive mode of inhibition”. Further, the IC50 in data set [8] (setting [12]) is ~2 µM. For the same molecule, the “thermal stabilisation of HS2ST (DSF)” value in data set [1] is “did not abrogate HS2ST binding”. Consider `CC(C)(COP(=O)(O)OP(=O)(O)OC[C@H]1O[C@@H](n2cnc3c(N)ncnc32)[C@H](O)[C@@H]1O)[C@@H](O)C(=O)NCCC(=O)NCCS` [dephospho-CoA, 3′-dephosphoCoA], for which, in data set [1], the “thermal stabilisation of HS2ST (DSF)” value is on record as “abolished this effect”. On to `CC(C)(C)c1nc(-c2cccc(NS(=O)(=O)c3c(F)cccc3F)c2F)c(-c2ccnc(N)n2)s1` [dabrafenib], for which, in data set [8] (result in words), the HS2ST inhibition result was “unable to inhibit HS2ST”. Turning to `Nc1ncnc2c1ncn2[C@@H]1O[C@H](COP(=O)(O)OP(=O)(O)O)[C@@H](O)[C@H]1O` [ADP, adenosine 5′-diphosphate], the “thermal stabilisation of HS2ST (DSF)” value in [1] is “effective at protecting HS2ST from thermal denaturation”. For `CC(=O)c1c(O)c(C)c(O)c(Cc2c(O)c3c(c(C(=O)/C=C/c4ccccc4)c2O)OC(C)(C)C=C3)c1O` [rottlerin], the IC50 in [8] (IC50, 20 nM HS2ST, 10 μM PAPS (Figure 3D)) is 6.4 µM; in data set [8] (IC50, positive control of the PKIS enzyme re-screen (Figure 4B, Supplementary Figures 7 and 8)), ~8 µM. For the same molecule, the “mode of HS2ST inhibition” value in data set [8] is on record as “competitive mode of HS2ST inhibition”. Turning to `O=C(O)C1=CC(=C(c2ccc(O)c(C(=O)O)c2)c2ccc(O)c(C(=O)O)c2)C=CC1=O` [aurintricarboxylate, aurintricarboxylic acid], the 50% inhibitory concentration (IC50) was 0.123 ± 0.007 µM in data set [8] (setting [10]) and ~0.09 µM in data set [8] (setting [11]).

Consider `[Mg+2]` [Mg^2+], for which, in data set [8] (high (>1 mM) concentrations of Mg2+ ions, relative to buffer controls, result in words), the HS2ST enzyme activity entry is “concentration-dependent increases”. In addition, the shift in melting temperature (ΔTm) in data set [1] (DSF) is ~3 °C. For the molecule `CC(C)(COP(=O)(O)OP(=O)(O)OC[C@H]1O[C@@H](n2cnc3c(N)ncnc32)[C@H](O)[C@@H]1OP(=O)(O)O)[C@@H](O)C(=O)NCCC(=O)NCCS` [CoA, coenzyme A], the “mode of HS2ST inhibition” value in data set [8] is reported as “PAPS-competitive mode of inhibition”. In [8] (setting [12]), the half-inhibitory concentration (IC50) is 65 µM. Also, the “thermal stabilisation of HS2ST (DSF)” value in data set [1] was “clearly induced thermal stabilisation”.

For the molecule `Nc1nc2c(ncn2[C@@H]2O[C@H](COP(=O)(O)OP(=O)(O)OP(=O)(O)O)[C@@H](O)[C@H]2O)c(=O)[nH]1` [GTP, guanosine 5′-triphosphate], in data set [1], the “thermal stabilisation of HS2ST (DSF)” value is recorded as “effective at protecting HS2ST from thermal denaturation”. `O=C1Nc2ccc(I)cc2C1=Cc1cc(Br)c(O)c(Br)c1` [GW305074]: the “HS2ST inhibition (dose-response)” value in data set [8] (20 nM HS2ST, result in words) is given as “mid-micromolar HS2ST inhibitor”.

B1: HS2ST (Gallus gallus) (protein)
chain: DEEDDVVIIYNRVPKTASTSFTNIAYDLCAKNRYHVLHINTTKNNPVMSLQDQVRFVKNVTSWKEMKPGFYHGHVSYLDFAKFGVKKKPIYINVIRDPIERLVSYYYFLRFGDDYRPGLRRRKQGDKKTFDECVAAGGSDCAPEKLWLQIPFFCGHSSECWNVGSRWALEQAKYNLINEYFLVGVTEELEDFIMLLEAALPRFFRGATELYRTGKKSHLRKTTEKKLPTKETIAKLQQSEIWKMENEFYEFALEQFQFVRAHAVREKDGELYILAQNFFYEKIYPKSN
notes: made in house; host or cells: Escherichia coli Rosetta-gami (DE3), modified pMAL-c2x plasmid
Regarding B1, the Michaelis constant (Km) in [9] was 1.03 ± 0.2 µM and 1 µM and 1.0 µM.
